Two compounds from patent publication US10422803B2, “Light-activated cation channel and uses thereof” (The Board of Trustees of the Leland Stanford Junior …, priority 2005, dated 2019) can be followed below.

The assay concerns hippocampal neurons. As to the kind of experiment: Light-driven synaptic transmission from ChR2-expressing presynaptic neurons. It is filed as cell-based, rat. How it is done: Spiking was measured while injecting current to keep the voltage of the cell at approximately −65 mV (holding current ranging from 0 pA to 200 pA). For the synaptic transmission experiments, we patched nonfluorescent neurons near ChR2-expressing neurons, immersed in Tyrode solution containing either 20 μM gabazine to isolate just the excitatory postsynaptic response, or in 5 μM NBQX to isolate just the inhibitory postsynaptic response. To confirm whether the evoked potentials were indeed synaptically driven, after synaptic stimulation we blocked all postsynaptic receptors with solution containing both 20 μM gabazine and 5 μM NBQX, and rephotostimulated.

In the case of `NS(=O)(=O)c1cccc2c1c([N+](=O)[O-])cc1nc(O)c(O)nc12` [NBQX], for the setting “glutamatergic blocker, FIG. 4(c)”, the “effect on light-driven excitatory synaptic responses” value was “abolishes these synaptic responses”. For the compound `COc1ccc(-c2ccc(=N)n(CCCC(=O)O)n2)cc1` [gabazine], the “effect on light-driven inhibitory synaptic responses” value (GABAergic transmission blocker, FIG. 4(d)) is reported as “abolishes these synaptic responses”.
